From ChEMBL document CHEMBL2434941, “Synthesis of conformationally constrained γ-D-glutamyl-meso-diaminopimelic acid derivatives as ligands of nucleotide-binding oligomerization domain protein 1 (Nod1)” (Eur J Med Chem, 2013)
The source made the active and inactive calls. No cut-off for these calls is given here.

Legend:
[1] = molecular target: T1, Nucleotide-binding oligomerization domain-containing protein 1 (Homo sapiens) (UniProt Q9Y239); experiment: Agonist activity at human Nod1 expressed in human Ramos-Blue cells assessed as increase in NF-kappaB transcriptional activity at 10 uM after 24 hrs by SEAP reporter gene assay; format: cell-based
T1 sequence (whole entry): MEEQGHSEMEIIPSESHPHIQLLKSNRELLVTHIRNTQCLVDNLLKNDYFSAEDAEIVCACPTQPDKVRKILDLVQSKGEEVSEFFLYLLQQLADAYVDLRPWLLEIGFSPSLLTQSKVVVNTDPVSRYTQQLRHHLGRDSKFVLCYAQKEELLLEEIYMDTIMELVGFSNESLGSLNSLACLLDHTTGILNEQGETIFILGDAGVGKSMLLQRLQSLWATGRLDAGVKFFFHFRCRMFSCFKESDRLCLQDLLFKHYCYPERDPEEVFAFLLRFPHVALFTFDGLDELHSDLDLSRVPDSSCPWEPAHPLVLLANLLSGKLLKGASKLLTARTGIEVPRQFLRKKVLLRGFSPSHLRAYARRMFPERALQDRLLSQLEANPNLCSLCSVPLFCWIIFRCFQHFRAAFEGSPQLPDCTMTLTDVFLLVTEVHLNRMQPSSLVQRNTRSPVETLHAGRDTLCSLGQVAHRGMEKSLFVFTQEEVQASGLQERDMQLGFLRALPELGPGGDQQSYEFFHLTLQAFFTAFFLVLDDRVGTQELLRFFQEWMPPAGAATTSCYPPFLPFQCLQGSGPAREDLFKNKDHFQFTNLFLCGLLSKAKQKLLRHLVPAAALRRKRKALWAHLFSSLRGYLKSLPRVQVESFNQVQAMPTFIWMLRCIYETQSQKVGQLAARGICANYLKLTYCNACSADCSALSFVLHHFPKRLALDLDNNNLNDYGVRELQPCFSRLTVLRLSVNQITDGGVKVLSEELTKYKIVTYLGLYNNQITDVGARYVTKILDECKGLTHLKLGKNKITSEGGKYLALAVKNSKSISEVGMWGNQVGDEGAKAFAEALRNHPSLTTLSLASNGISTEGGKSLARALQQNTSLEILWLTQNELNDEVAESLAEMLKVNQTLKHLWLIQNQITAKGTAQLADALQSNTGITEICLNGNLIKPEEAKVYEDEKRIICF

PBMC [2] = experiment: Immunomodulatory activity in human PBMC assessed as increase in IL-12p70 production at 10 uM after 24 hrs by flow cytometric analysis; format: functional, cell-based
PBMC [3] = experiment: Immunomodulatory activity in human PBMC assessed as increase in LPS-induced IL-10 production at 10 uM after 24 hrs by flow cytometric analysis; format: functional, cell-based
PBMC [4] = experiment: Immunomodulatory activity in human PBMC assessed as increase in LPS-induced TNF-alpha production at 10 uM after 24 hrs by flow cytometric analysis; format: functional, cell-based
PBMC [5] = experiment: Immunomodulatory activity in human PBMC assessed as increase in TNF-alpha production at 10 uM after 24 hrs by flow cytometric analysis; format: functional, cell-based
PBMC [6] = experiment: Immunomodulatory activity in human PBMC assessed as increase in LPS-induced IL-8 production at 10 uM after 24 hrs by flow cytometric analysis; format: functional, cell-based
PBMC [7] = experiment: Immunomodulatory activity in human PBMC assessed as increase in LPS-induced IL-1beta production at 10 uM after 24 hrs by flow cytometric analysis; format: functional, cell-based
PBMC [8] = experiment: Immunomodulatory activity in human PBMC assessed as increase in LPS-induced IL-6 production at 10 uM after 24 hrs by flow cytometric analysis; format: functional, cell-based
[9] = molecular target: T1, Nucleotide-binding oligomerization domain-containing protein 1 (Homo sapiens); experiment: Agonist activity at human Nod1 expressed in human Ramos cells assessed as reduction of NF-kappaB transcriptional activity at 10 uM after 24 hrs by SEAP reporter gene assay in presence of nod1 antagonist noditinib-1; format: cell-based
PBMC [10] = experiment: Immunomodulatory activity in human PBMC assessed as increase in IL-6 production at 10 uM after 24 hrs by flow cytometric analysis; format: functional, cell-based
PBMC [11] = experiment: Immunomodulatory activity in human PBMC assessed as increase in LPS-induced IL-12p70 production at 10 uM after 24 hrs by flow cytometric analysis; format: functional, cell-based
PBMC [12] = experiment: Immunomodulatory activity in human PBMC assessed as increase in IL-1beta production at 10 uM after 24 hrs by flow cytometric analysis; format: functional, cell-based
PBMC [13] = experiment: Immunomodulatory activity in human PBMC assessed as increase in IL-8 production at 10 uM after 24 hrs by flow cytometric analysis; format: functional, cell-based
PBMC [14] = experiment: Immunomodulatory activity in human PBMC assessed as increase in IL-10 production at 10 uM after 24 hrs by flow cytometric analysis; format: functional, cell-based

Activity [1] | Activity [9] | SMILES | Activity (PBMC [2]) | Activity (PBMC [3]) | Activity (PBMC [4]) | Activity (PBMC [5]) | Activity (PBMC [6]) | Activity (PBMC [7]) | Activity (PBMC [8]) | Activity (PBMC [10]) | Activity (PBMC [11]) | Activity (PBMC [12]) | Activity (PBMC [13]) | Activity (PBMC [14])
Active | Active | CCCCCCCCCCCCN(CCCCCCCCCCCC)[C@H](CCC(=O)N[C@@H](/C=C/C[C@@H](N)C(=O)O)C(=O)O)C(=O)O | inactive | Active | inactive | Active | inactive | inactive | Active | Active | inactive | Active | Active | Active
Active | Active | CCCCCCCCCCCC(=O)N[C@H](CCC(=O)N[C@@H](CCC[C@@H](N)C(=O)O)C(=O)O)C(=O)O | inactive | Active | Active | Active | inactive | inactive | Active | Active | inactive | Active | Active | Active
Active | Active | CCCCCCCCCCCC(=O)N[C@H](CCC(=O)N[C@@H](/C=C/C[C@@H](N)C(=O)O)C(=O)O)C(=O)O | inactive | Active | inactive | Active | inactive | inactive | Active | Active | inactive | Active | Active | Active
Active | Active | CCCCCCCCCCCCN(CCCCCCCCCCCC)[C@H](CCC(=O)N[C@@H](C/C=C/[C@@H](N)C(=O)O)C(=O)O)C(=O)O | inactive | inactive | inactive | Active | inactive | inactive | Active | Active | inactive | Active | Active | Active
Active | Active | CCCCCCCCCCCC(=O)N[C@H](CCC(=O)N[C@@H](C/C=C/[C@@H](N)C(=O)O)C(=O)O)C(=O)O | inactive | Active | Active | Active | inactive | inactive | Active | Active | inactive | Active | Active | Active
